Data from US20200299251A1, “FURAN SKELETON-CONTAINING IMINOGUANIDINE DERIVATIVE AS WELL AS PREPARATION AND APPLICATION THEREOF” (SUN YAT-SEN UNIVERSITY, priority 2017, published 2020).
One block for each molecule: values may come before it.

Assays:
[1] = format: physicochemical
[2] = Release of H2O and CO2 by heating in watch glass under normal pressure (weight loss); format: physicochemical
Method: The weight-lost solid was dissolved into water, carbon dioxide gas was introduced, and the above substances were stirred for lh to separate out a yellow solid.
The weight was 2.6 g, and weight loss was 29.7%. The weight-lost solid was dissolved into water, carbon dioxide gas was introduced, and the above substances were stirred for 1 h to separate out a yellow solid.
The weight was 2.46 g, and weight loss was 33.7%. The weight-lost solid was dissolved into water, carbon dioxide gas was introduced, and the above substances were stirred for lh to separate out a yellow solid.
The weight was 2.45 g, and weight loss was 33.7%. The weight-lost solid was dissolved into water, carbon dioxide gas was introduced, and the above substances were stirred for lh to separate out a yellow solid.

[3] = Thermogravimetry infrared experiment; format: physicochemical; conditions: 10 K/min
Method: The temperature range was 25-800° C., and the heating rate was 10 K/min. […] It can be seen from FIG. 9B that this molecule can release water molecules and carbon dioxide molecules under the heating condition, and water molecules and carbon dioxide molecules are nearly released at the same time.

[4] = Differential scanning calorimetric experiment; format: physicochemical; conditions: 30-200° C., 10 K/min
[5] = Equilibrium constants and enthalpy changes of the process of absorbing and releasing carbon dioxide; format: physicochemical
[6] = Water solubility of FuBIG salts, UV absorbance of saturated aqueous solutions; conditions: saturated aqueous solution, UV absorbance at 368 nm
Method: The absorbance of the above concentration gradients was determined under this wavelength, and standard curves were plotted to obtain a curve equation Y=14705×−0.0825 (as shown in FIG. 13B).
It was known that the pKa of HCO3^− was 10.32.

[7] = Determination of pKa by pH titration with NaOH; format: physicochemical
Method: 0.077 g of FUBIG hydrochloride and 0.585 g of NaCl were weighed, the volume was metered to 50 mL with ultrapure water, and 26 μL of HCl (36%) was dropwise added. The mixed solution was stirred at 25° C. until the temperature was stabilized. The pH meter was calibrated respectively using potassium hydrogen phthalate (pH 4.00) buffer, mixed phosphate buffer (pH 6.86), sodium tetraborate buffer (pH 9.18), and then titration was conducted with 0.1M NaOH solution. After each titration, the system was stabilized after waiting for 7min, and then the next titration was conducted. The volume and pH value of each titration were recorded.
Plot was made according to the ph-V (mL). […] The same method was used to obtain: 15° C., pKa1=7.79, pKa2=8.90; at 20° C., pKa1=7.68, pKa2=8.82; at 30° C., pKa1=7.49, pKa2=8.66; at 35° C., pKa1=7.31, pKa2=8.59 (as shown in Table 3).

Compound: Cl.N=C(N)NN=Cc1ccc(C=NNC(=N)N)o1
Solubility(FuBIG cation concentration, M) [6]: 0.74 (6) M

Compound: N=C(N)NN=Cc1ccc(C=NNC(=N)N)o1.O=S(O)O
Solubility(FuBIG cation concentration, M) [6]: 1.4 (2)×10^−3 M

Next, values leading:

pH of saturated aqueous solution ([1]; pH meter): 8.48 | concentration of carbonate ion [CO3^2−] in the saturated solution ([1]; saturated aqueous solution, pH 8.48): 1.3(3)×10^−4 M | weight loss ([2]; heated for 5 h at 100° C.): 33.6% | weight loss ([2]; heated for 12 h at 70° C.): 29.7% | weight loss ([2]; heated for 12 h at 120° C.): 33.7% | weight loss ([2]; heated for 12 h at 180° C.): 33.7% | temperature at which the weight loss rate is the maximum ([3]; 25-800° C.): 100 °C | temperature at which water and carbon dioxide molecules are completely lost ([3]; 25-800° C.): 165 °C | weight loss ([3]; at 165° C.): 36.31% | temperature range of release of carbon dioxide and water (DSC) [4]: 97.89-109.13 °C | Enthalpy change ΔH ([5]; FuBIGH2(CO3)(H2O)4 precipitate): -24.276 kcal/mol | Equilibrium constant K ([5]; FuBIGH2(CO3)(H2O)4 precipitate): 1.63 × 10^7 | Solubility(FuBIG cation concentration, M) [6]: 9.3 (4)×10^−3 M
Compound: N=C(N)NN=Cc1ccc(C=NNC(=N)N)o1.O.O.O.O.O=C(O)O

Solubility(FuBIG cation concentration, M) [6]: 3.3 (2)×10^−2 M
Compound: N=C(N)NN=Cc1ccc(C=NNC(=N)N)o1.O.O.O=[N+]([O-])O.O=[N+]([O-])O

pKa1 ([7]; 15° C.): 7.79 | pKa2 ([7]; 15° C.): 8.90 | pKa1 ([7]; 20° C.): 7.68 | pKa2 ([7]; 20° C.): 8.82 | pKa1 ([7]; 25° C.): 7.57 | pKa2 ([7]; 25° C.): 8.71 | pKa1 ([7]; 30° C.): 7.49 | pKa2 ([7]; 30° C.): 8.66 | pKa1 ([7]; 35° C.): 7.31 | pKa2 ([7]; 35° C.): 8.59 | Enthalpy change ΔH ([5]; FuBIG dissolution): 11.76 kcal/mol | Equilibrium constant K ([5]; FuBIG dissolution): 4.03 × 10^−1 | Enthalpy change ΔH ([5]; FuBIG protonation): 11.01 kcal/mol | Equilibrium constant K ([5]; FuBIG protonation): 1.91 × 10^−12 | Enthalpy change ΔH ([5]; Total CO2 absorbing process): -27.75 kcal/mol | Equilibrium constant K ([5]; Total CO2 absorbing process): 5.97 × 10^4 | Enthalpy change ΔH ([5]; Total CO2 releasing process): 50.026 kcal/mol | melting point: 244 to 246 °C
Compound: N=C(N)N/N=C/c1ccc(/C=N/NC(=N)N)o1 [FuBIG]
